The source of these data is patent publication US8039501B2, “Synephrine derivatives useful as anti-inflammatory agents” (Universiteit Gent, priority 2005, dated 2011).

In data set [1] the test system is MM1.S cell lines. Nature of the data set: Annexin V/PI assay in MM1.S cells. Type of data set: cell-based, human. The note with it: positive control, FIG. 13. The protocol: 1. […] Procedure: • Human multiple myeloma cell lines L363, U266, MM1.S and MMR.1 are cultured in RPMI 1640 with Glutamax-I, supplemented with 10% FCS, 100 U/ml penicillin and 100 μg/ml streptomycin. Cells are counted and resuspended in fresh medium at a concentration of 1×10^6/ml. Next, 1 ml of cell suspension is transferred to 5 ml culture tubes in the presence of test compounds (DEX, CpdA, CpdA analogues: 10^−7 to 10^−4 M) or vehicle (EtOH) and incubated for 24 or 48 hours at 37° C. • Double-staining of the cells with PI and annexin V is performed according to the instructions of the Annexin V kit (BD Biosciences). • Double-stained cells are analyzed by flow cytometry. […] Graphs are represented as the ratio of early apoptotic cells versus late apoptotic cells (a) or as total % of living cells (b).

Data set [2] has as its system pE-selectin-Luc (E-selectin promoter). The data set can be described thus: pE-selectin-Luc reporter gene assay in TNF-induced L929sA cells. It counts as cell-based, mouse. The note with it: indicated concentrations, from -2 hours for 8 hours; TNF 2000 IU/ml 6 hours; FIG. 1. The source says:
L929sA mouse fibroblast cells were stably transfected with pE-selectine-Luc (also referred to as pELAM-luc) by the calcium phosphate precipitation procedure described by De Bosscher et al. in Proc. Natl. Acad. Sci. USA (1997) 94, 13504-13509. The co-transfected plasmid pPGKβGeobpA, conferring resistance to G418 and expressing constitutive β-galactosidase enzymatic activity, was used as an internal control. L929sA cells were transiently transfected by the DEAE-dextran transfection method described by De Bosscher et al. (cited supra).
Recombinant murine tumor necrosis factor (TNF) was produced according to a method standard in the art. Dexamethasone (hereinafter abbreviated as DEX) commercially available from Sigma, and 2-(4-acetoxyphenyl)-2-chloro-N-methyl-ethylammonium chloride (hereinafter abbreviated as compound A) was synthesized according to Louw et al. in Biochemical Pharmacology (1997) 53, 189-197). A stock solution was prepared in ethanol (for DEX) or DMSO (for both comparative compound A and for the compound of example 6 according to this invention, i.e. 1-[4-(benzoyloxy)phenyl]-2-[(tert-butoxy-carbonyl)-methylamino]ethyl-1H-imidazole-1-carboxylate), aliquoted and stored at −70° C.
Induction was performed in triplicate for each independent experiment, which was carried out at least twice. Induction with DEX, compound A, and for the compound of example 6 according to this invention at 1 μM, 10 μM or respectively any other indicated concentration were performed at −2 hours for a total of 8 hours, while TNF (2000 IU/ml) was added at time point zero and left on the cells for 6 hours. After induction, cells were lysed with a lysis buffer (commercially available from Tropix, Bedford, Massachussets) and samples were assayed according to the manufacturer's instructions (Promega Biotech).
In order to investigate whether the inhibitory effect of compound A or the compound of example 6 according to this invention is directed at the transcriptional level of NF-κB-driven genes, the NF-κB-dependent physiological promoter construct, pE-selectin-Luc stably integrated into L929sA cells, was tested. […] DEX-mediated and compound A-mediated inhibition of TNF-induced gene expression were used as controls (FIG. 1). In the appended figures, NI stands for non-induced (either in presence of solvent controls like ethanol or DMSO).

The test system of data set [3] is MM1.S cell line. The data set can be described thus: MTT test, cell viability of MM1.S cells. As to conditions: 10% FCS, FIG. 4A. Type of data set: cell-based, human. The protocol:
(§1) The MTT test is a standard assay addressing cell toxicity of a compound. It is based on the principle that after 3-4 hours of cell incubation with MTT (3-(4,5-dimethylthiazole-2-yl)-2,5-diphenyl tetrazolium bromide) so-called purple formazan crystals develop in living and early apoptotic cells. Dead cells don't produce formazan crystals.
(§2) Different cell lines were tested. Unless indicated differently, A549 human lung epithelial cells (derived from lung carcinoma) and L929sA murine fibroblast cells were cultured in DMEM with 10% FCS, 100 U/ml penicillin and 100 μg/ml streptomycin. Unless indicated differently, the human multiple myeloma cell lines L363, U266 and MM1.S were cultured in RPMI 1640 with Glutamax-I, supplemented with 10% FCS, 100 U/ml penicillin and 100 μg/ml streptomycin. Cells were seeded at 5000 cells/well (for adherent A549 and L929sA cells) or at 10000 cells/well (for the multiple myeloma lines in suspension) in 96 well plates. Cells were incubated in the presence of the respective synephrine compounds or vehicle (EtOH; for control test) in a final volume of 0.2 ml for 24 or 48 hours at 37° C. Subsequently, 20 μl of MTT solution (5 mg/ml in phosphate-buffered saline) was added to each well. After 4 hours incubation at 37° C., 80 μl of the extraction buffer (10% SDS, 0.01 M HCl) was added. After overnight incubation at room temperature, the optical densities at 590 nm were measured. Results are illustrated in FIGS. 2 to 6 and are expressed as percentage of viable cells as compared to vehicle-treated controls.
(§3) The MTT test was further extended to include alternative synephrine derivatives and a range of multiple myeloma cell lines for which the results are illustrated by FIGS. 3A, 3B and 4A. Human multiple myeloma cell lines L363, U266 and MM1.S were cultured in RPMI 1640 with Glutamax-I, supplemented with 10% FCS, 100 U/ml penicillin and 100 μg/ml streptomycin. Cells were seeded at 10000 cells/well in 96 well plates. Cells were incubated in the presence of test compounds or vehicle in a final volume of 0.2 ml for 24 or 48 hours at 37° C. The test compounds included in the test were the synephrine derivatives CpdA, Naphth, Benz and Isobut, and DEX as a comparative example. Subsequently, 20 μl of MTT solution (5 mg/ml in phosphate-buffered saline) was added to each well. After 4 hours incubation at 37° C., 80 μl of the extraction buffer (10% SDS, 0.01 M HCl) was added. After 48 hours incubation at room temperature, the optical densities at 590 nm were measured. Results are expressed as percentage of viable cells as compared to vehicle-treated controls.

In data set [4] the test system is L363 cell line. The data set can be described thus: MTT test, cell viability of L363 cells. Type of data set: cell-based, human. As to conditions: 10% FCS, FIG. 3B; for Cell killing of L363 cells: 10^−5 M; for cytotoxicity at 100 µM: Homo sapiens, L-363, read-out: Block of L363 cell viability. The method, then:
as §1, §2, §3

Data set [5] deals with multiple myeloma cells U266. The data set can be described thus: MTT test, cell viability of U266 cells. The note with it: 10^−4 M, 10% FCS, FIG. 3A; for cytotoxicity at 100 µM: Homo sapiens, U-266, read-out: Block of U266 cell viability / cell killing. Type of data set: cell-based, human. The method, then:
as §1, §2, §3

Data set [6] deals with B-CLL cells. Nature of the data set: Annexin V/PI flow cytometric analysis of apoptosis in ex-vivo cultured B-CLL cells. Type of data set: cell-based, human. As to conditions: 24 hours. The protocol:
Blood samples were obtained from B-CLL patients after informed consent according to institutional guidelines. CLL lymphocytes were isolated using Lymphoprep (Nycomed Pharma, Denmark) and re-suspended at a final concentration of 10−30×10^6 cells/ml in RPMI 1640 medium, supplemented with 10% heat-inactivated fetal bovine serum (FBS) (Greiner Bio-one, Wemmel, Belgium), 100 IU/ml penicillin, 100 μg/ml streptomycin, and 0.56 μg/mL fungizone (Gibco BRL, Merelbeke, Belgium). B-CLL cells were cultured in Dulbecco's Modified Eagle Medium (DMEM) (Gibco, Invitrogen Inc.) containing 10% FBS (Gibco, Invitrogen Inc.). For flow cytometric analysis of apoptosis, B-CLL cells were treated with the different compounds for 24 hours, 3×10^5 cells were removed from the culture medium, washed twice with cold PBS, and double stained with annexin V-fluorescein isothiocyanate (FITC) and propidium iodide (PI; Beckman Coulter, Miami, Fla.) in Annexin binding buffer, followed by analysis on a FC500PTM (Beckman Coulter, Nyon, Switzerland) flow cytometer. Flow cytometric data were analyzed using Cytomixs RXP software (Beckman Coulter, Nyon, Switzerland). To avoid non-specific fluorescence from dead cells, live cells were gated using forward and side scatter.
One of the early signs of apoptosis is the translocation of the membrane phospholipid phosphatidylserine from the cytoplasmic interface to the extracellular surface. Annexin V has a high affinity for the phospatidylserine-containing phospholipid bilayers. […] As the plasma membrane becomes increasingly permeable during the later stages of apoptosis, the DNA-binding dye PI can readily move across the cell membrane and bind to cellular DNA, providing a means to detect the loss of membrane integrity through mechanisms including necrosis. Three different cell populations can be observed in cells double-stained with AnnV-FITC and PI. […] Cells that stain with Ann V only are early apoptotic cells. And cells that stain with both AnnV and PI are late apoptotic/necrotic cells. The percentage of AnnV-positive B-CLL cells in the lymphocyte gate were measured by FACS and results were expressed as % apoptotic cells, i.e. sum of early apoptotic (AnnV+, PI−), and late apoptotic/dead cells (AnnV+, PI+). The percent of living cells was normalized to 100% living cells incubated in control medium with 0.1% EtOH. All measurements were made in duplicate and averaged.

A short description of data set [7]: MTT test, cell viability of A549 cells. Type of data set: cell-based, human. The note with it: human, A549 lung epithelial (carcinoma) cells; 10^−5 M; 48 hours; FIG. 6B; read-out: Block of A549 cell viability. The protocol:
as §1, §2
(§4) In a further MTT test, the activity of the synephrine derivatives on the inhibition of cell viability of non-immune cells was measured. […] Tests were performed for 24 hours and for 48 hours. The results are illustrated by FIGS. 5A and 5B for L929 cells, and by FIGS. 6A and 6B for A549 cells. It was observed that CpdA at 10^−5 M blocked cell viability of L929sA and A549 for not more than 10%.

Data set [8] has as its system A549 human lung epithelial cells. Nature of the data set: MTT test, cell viability of A549 cells. Type of data set: cell-based. The protocol:
as §1, §2, §4

Data set [9] is described as follows: MTT test, cell viability of L929sA fibroblasts. Type of data set: cell-based, murine. The note with it: mouse, L929sA fibroblast cells; 10^−5 M; within 48 hours; FIG. 5B; read-out: Block of L929sA cell viability. The protocol: as §1, §2, §4

Residues, ends and D or L forms follow the SMILES beside them. *: point of attachment. Cbz = O=C(OCc1ccccc1)*

Regarding `CC(C)C[C@@H](C=O)NC(=O)[C@H](CC(C)C)NC(=O)[C@H](CC(C)C)NC(=O)OCc1ccccc1` [MG132, reference compound] (Cbz-Leu-Leu-Leu-aldehyde), in [1], the “Apoptosis (Annexin V/PI staining)” value is “also mediates apoptosis”.
For the compound `CCCCCC(=O)Oc1ccc(C(O)CN(C)C(=O)OC(C)(C)C)cc1` (centres unmarked) [example 6, 4-{2-[(tert-butoxycarbonyl)(methyl)amino]-1-hydroxyethyl}phenyl hexanoate], the “Inhibition of TNF-induced gene expression (E-selectin gene induction)” value (“Inhibition … (E-selectin gene induction)” for short) in data set [2] is reported as “observed in a dose-responsive manner”.
Regarding `CC(C)C(=O)Oc1ccc(C(CN(C)C(=O)OC(C)(C)C)OC(=O)n2ccnc2)cc1` (centres unmarked) [Isobut, 1-[4-(isobutanoyloxy)phenyl]-2-[(tert-butoxycarbonyl)-methylamino]ethyl-1H-imidazole-1-carboxylate], the “Inhibition of MM1.S cell viability” value in [3] (10^−5 M) was “block cell viability completely”. Further, in [2], the “Inhibition … (E-selectin gene induction)” value is “effectively inhibit TNF-induced E-selectin gene induction”. Also, in data set [4], the “Cell killing of L363 cells” value is 25%. In addition, the cytotoxicity at 100 µM in [4] (10^−4 M) and in data set [5] was 80% in each case.
As to `C[C@H]1C[C@@H]2[C@H]([C@@H](O)C[C@@]3(C)[C@H]2CC[C@]3(O)C(=O)COC(=O)CCC(=O)O)[C@@]2(C)C=CC(=O)C=C12` [Solumedrol], in [6] (10^−7M), the “% apoptotic cells, CLL patient 1” value stood at 60% and the “% apoptotic cells, CLL patient 2” value worked out at 34%.
Turning to `O=C(O)CCCc1ccc(N(CCCl)CCCl)cc1` [Chlorambucil], in data set [6] (25 · 10^−7M), the “% apoptotic cells, CLL patient 1” value was 51% and the “% apoptotic cells, CLL patient 2” value is listed as 46%.
Consider `Nc1nc(F)nc2c1ncn2[C@@H]1O[C@H](CO)[C@@H](O)[C@@H]1O` [Fludarabine], for which, in data set [6] (5 · 10^−6M), the “% apoptotic cells, CLL patient 1” value is given as 56% and the “% apoptotic cells, CLL patient 2” value was found to be 63%.
Take `CN(CC(OC(=O)n1ccnc1)c1ccc(OC(=O)c2ccccc2)cc1)C(=O)OC(C)(C)C` (centres unmarked) [Benz, 1-[4-(benzoyloxy)phenyl]-2-[(tert-butoxycarbonyl)-methylamino]ethyl-1H-imidazole-1-carboxylate]: the “Inhibition of MM1.S cell viability” value in data set [3] (10^−5 M) was “block cell viability completely”. The values for the cytotoxicity at 48 h in data set [7] and in data set [9] were 10% and at most 20%, respectively. For the same compound, the “Block of A549 cell viability” value in data set [8] (10^−5 M, 24 hours, FIG. 6A) is listed as “not able to block cell viability”. Besides, the “Inhibition … (E-selectin gene induction)” value in data set [2] is “effectively inhibit TNF-induced E-selectin gene induction”. Further, in data set [4], the “Cell killing of L363 cells” value worked out at 40%. Besides, the cytotoxicity at 100 µM in data set [4] (10^−4 M) and in data set [5] was 90% each time.
For the compound `CN(CC(OC(=O)n1ccnc1)c1ccc(OC(=O)c2cccc3ccccc23)cc1)C(=O)OC(C)(C)C` (centres unmarked) [Naphth, 1-[4-(1-naphthoyloxy)phenyl]-2-[(tert-butyloxycarbonyl)(methyl)amino]ethyl 1H-imida-zole-1-carboxylate], the “Inhibition of MM1.S cell viability” value in data set [3] (10^−4 M) is recorded as “almost completely”; in data set [3] (10^−5 M) it was “about 35%”. In addition, the “Block of A549 cell viability” value was 20% in [8] (10^−4 M, 48 hours, FIG. 6B); “about 10%” in data set [8] (10^−5 M, 24 hours, FIG. 6A); “not more than 20%” in data set [8] (10^−5 M, 48 hours, FIG. 6B). In addition, in data set [4] (10^−4 M), the “Block of L363 cell viability” value is recorded as 90%. For the same compound, the “Cell killing of L363 cells” value in data set [4] is reported as 40%. Besides, in data set [5], the “Block of U266 cell viability / cell killing” value is 70%.
